One experiment relates to HAdV-4 (species E). As to the kind of experiment: Infection assay (hexon staining), HAdV-4. To be noted: 15 µM HD5 or HNP1, A549 cells, hexon staining at ~48 h, vs. no defensin. The experiment is classed as cell-based, human adenovirus. As to the method: (§1) To determine whether sensitivity to α-defensins is a general property of HAdVs, serotypes representative of HAdV species A–F were tested for infectivity in the presence of 15 µM HD5 or HNP1 (Figure 1). Wild type HAdVs rather than vectors were used for these studies, and infectivity was assessed by staining for hexon production. […] These studies indicate that sensitivity to α-defensins is species specific. In addition, particular HAdV serotypes are not equally sensitive to all defensins, indicating defensin sequence specificity as well.
(§2) Figure 1 Sensitivity to neutralization by alpha-defensins is AdV species specific. HAdVs were incubated with 15 µM HD5 (A) or HNP1 (B) and assessed for infectivity on A549 cells. Data are the mean of the percent infectivity compared to control cells infected with each virus in the absence of defensin for at least three independent experiments ± SD. The upper limit for quantification of this assay is 200%. […]
(§3) Prior to use in this assay, each virus stock was titrated on A549 cells. […] In parallel, wells were infected with two-fold serial dilutions of each virus to establish a standard curve for quantification with an upper limit of 200%. […] Total well fluorescence above background was quantified with ImageJ software. For each virus, samples were quantified by nonlinear regression against the standard curve using Prism software (GraphPad Software, Inc., La Jolla, CA).

A further experiment concerns HAdV-3. Nature of the experiment: Infection assay (hexon staining), HAdV-3. To be noted: 15 µM HNP1, A549 cells, vs. no defensin. The experiment is classed as cell-based, human adenovirus. As to the method:
as §1, §2, §3

The next experiment relates to HAdV-12. As to the kind of experiment: Infection assay (hexon staining), HAdV-12. The experiment is classed as cell-based, human adenovirus. To be noted: 15 µM HNP1, A549 cells, vs. no defensin. Here is the method:
as §1, §2, §3

The test system of a further experiment is HAdV-14. As to the kind of experiment: Infection assay (hexon staining), HAdV-14. In kind it is cell-based, human adenovirus. The settings on record: 15 µM HNP1, A549 cells, vs. no defensin. As to the method: as §1, §2, §3
Another experiment concerns HAdV-16. As to the kind of experiment: Infection assay (hexon staining), HAdV-16. The experiment is classed as cell-based, human adenovirus. The settings on record: 15 µM HNP1, A549 cells, vs. no defensin. Here is the method: as §1, §2, §3
For experiment [1], the system named is Serotypes sensitive to HD5. Nature of the experiment: Infection assay (hexon staining), serotypes sensitive to HD5. In kind it is cell-based, human adenovirus. The settings on record: 15 µM HNP1, A549 cells, vs. no defensin. Here is the method: as §1, §2, §3
In the next experiment the test system is HAdV-5. The settings on record: low micromolar concentrations; ref [13]; cited from earlier work.

“HNP1: human alpha-defensin; synthetic, obtained from Peptides International”: the “sensitivity to neutralization (infectivity)” value is recorded as “resistant” in the experiment on HAdV-4 (species E) and “generally sensitive” in experiment [1]. Besides, the inhibition of infection entry in the experiment on HAdV-3, with HAdV-12, in the experiment on HAdV-14 and in the experiment with HAdV-16 was “only modest inhibition” in each case. Also, the “inhibition of HAdV-5 infection” value in the experiment with HAdV-5 is listed as “significantly inhibit HAdV-5 infection at low micromolar concentrations”.

Values taken from paper PMC2891831, “Insight into the Mechanisms of Adenovirus Capsid Disassembly from Studies of Defensin Neutralization” (PLoS Pathogens, 2010).
